Reference: patent US12247015B2, “3-amino-4H-benzo[e][1,2,4]thiadiazine 1,1-dioxide derivatives as inhibitors of MRGX2” (Solent Therapeutics, LLC, priority 2019, dated 2025)

Biological target: hMRGX2 (CHO-K1 cells overexpressing MRGX2) (Homo sapiens (Human), UniProt Q96LB1)
Test: In vitro inhibition (EC50) of intracellular calcium flux, FLIPR Tetra, substance P stimulation
Format: cell-based
Conditions: stimulated with MRGX2 ligand substance P, FLIPR Calcium 5, read-out: hMRGX2 Cellular Potency (pEC50) (converted)
Method: In Vitro Inhibition (EC50) of Intracellular Calcium Flux
The release of intracellular calcium following stimulation of cells with substance P in the presence or absence of inhibitor compounds was measured using the FLIPR Tetra® system. CHO-K1 cells overexpressing MRGX2 were seeded into 384-well plates (Black clear bottom, TC-treated, Fisher #07-200-655) and incubated overnight to allow for cell attachment. Media was removed, and 1× loading buffer (FLIPR® Calcium 5 assay solution, Molecular Devices, per manufacturer specifications) was added. The plates were incubated at 37° C. for 30 minutes. Test compounds were added to cells (11-point dose response, 10 µM maximum concentration) and fluorescence measured (120 seconds, in real time) using the FLIPR Tetra® system. Immediately following, MRGX2 ligand substance P was added at a final concentration of 1 µM and fluorescence measured (120 seconds, in real time) using the FLIPR Tetra® system. The data for the examples are reported as pEC50.

hMRGX2 (CHO-K1 cells overexpressing MRGX2), sequence (Q96LB1 whole entry): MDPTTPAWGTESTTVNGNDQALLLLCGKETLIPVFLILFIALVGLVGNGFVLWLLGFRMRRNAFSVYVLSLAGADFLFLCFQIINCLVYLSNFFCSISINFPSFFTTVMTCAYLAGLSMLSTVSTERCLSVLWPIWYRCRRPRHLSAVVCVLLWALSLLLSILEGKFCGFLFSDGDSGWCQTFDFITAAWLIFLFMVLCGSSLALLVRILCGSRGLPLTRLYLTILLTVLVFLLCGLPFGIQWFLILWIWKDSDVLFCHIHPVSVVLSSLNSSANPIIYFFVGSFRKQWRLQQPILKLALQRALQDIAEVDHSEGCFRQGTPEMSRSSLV

Row | EC50 | SMILES
1 | 233 nM | Cc1cnccc1-c1cccc2c1NC(Nc1ccc(C(C)C)cc1)=NS2(=O)=O [Example 113, 3-((4-isopropylphenyl)amino)-5-(3-methylpyridin-4-yl)-4H-benzo[e][1,2,4]thiadiazine 1,1-dioxide]
2 | 2750 nM | CO[C@@H](C)CNC1=NS(=O)(=O)c2cccc(-c3cccc(F)c3F)c2N1 [Example 25, (S)-5-(2,3-difluorophenyl)-3-((2-methoxypropyl)amino)-4H-benzo[e][1,2,4]thiadiazine 1,1-dioxide]
3 | 70 nM | N#Cc1c(F)cccc1-c1cccc2c1NC(NCc1nccs1)=NS2(=O)=O [Example 126, 2-(1,1-dioxido-3-((thiazol-2-ylmethyl)amino)-4H-benzo[e][1,2,4]thiadiazin-5-yl)-6-fluorobenzonitrile]
4 | 21.3 nM | COc1cccc(CNC2=NS(=O)(=O)c3cccc(-c4cccc(F)c4Cl)c3N2)n1 [Example 18, 5-(2-chloro-3-fluorophenyl)-3-(((6-methoxypyridin-2-yl)methyl)amino)-4H-benzo[e][1,2,4]thiadiazine 1,1-dioxide]
5 | 2690 nM | CO[C@H](C)CNC1=NS(=O)(=O)c2cccc(-c3cc(F)cc(F)c3F)c2N1 (single isomer, unassigned) [Example 129]
6 | 244 nM | COC(C)CNC1=NS(=O)(=O)c2cccc(-c3cc(F)ccc3F)c2N1 (stereo not drawn) [Example 142, 5-(2,5-difluorophenyl)-3-((2-methoxypropyl)amino)-4H-benzo[e][1,2,4]thiadiazine 1,1-dioxide]
7 | 416 nM | COC(C)CNC1=NS(=O)(=O)c2cccc(-c3cccc(F)c3C#N)c2N1 (stereo not drawn) [Example 150, 2-fluoro-6-(3-((2-methoxypropyl)amino)-1,1-dioxido-4H-benzo[e][1,2,4]thiadiazin-5-yl)benzonitrile]
8 | 190 nM | CNC1=NS(=O)(=O)c2ccc(F)c(-c3ccccc3Cl)c2N1 [Example 138, 5-(2-chlorophenyl)-6-fluoro-3-(methylamino)-4H-benzo[e][1,2,4]thiadiazine 1,1-dioxide]
9 | 20.7 nM | O=S1(=O)N=C(NCC2CCC2)Nc2c(-c3cccc(F)c3Cl)cccc21 [Example 17, 5-(2-chloro-3-fluorophenyl)-3-((cyclobutylmethyl)amino)-4H-benzo[e][1,2,4]thiadiazine 1,1-dioxide]
10 | 87.9 nM | O=S1(=O)N=C(NCC2CCC2)Nc2c(-c3cc(F)cc(F)c3F)cccc21 [Example 130, 3-((cyclobutylmethyl)amino)-5-(2,3,5-trifluorophenyl)-4H-benzo[e][1,2,4]thiadiazine 1,1-dioxide]
11 | 39.8 nM | COc1ccc(CCNC2=NS(=O)(=O)c3cccc(-c4cccc(F)c4Cl)c3N2)cc1 [Example 72, 5-(2-chloro-3-fluorophenyl)-3-((4-methoxyphenethyl)amino)-4H-benzo[e][1,2,4]thiadiazine 1,1-dioxide]
12 | 146 nM | CC(NC1=NS(=O)(=O)c2cc(F)cc(-c3cccc(F)c3Cl)c2N1)c1cscn1 (stereo not drawn) [Example 9, 5-(2-chloro-3-fluorophenyl)-7-fluoro-3-((1-(thiazol-4-yl)ethyl)amino)-4H-benzo[e][1,2,4]thiadiazine 1,1-dioxide]
13 | 34.9 nM | O=S1(=O)N=C(NCc2ccccc2F)Nc2c(-c3cc(F)cc(F)c3)cccc21 [Example 77, 5-(3,5-difluorophenyl)-3-((2-fluorobenzyl)amino)-4H-benzo[e][1,2,4]thiadiazine 1,1-dioxide]
14 | 26.4 nM | O=S1(=O)N=C(NCc2ccccn2)Nc2c(-c3ccccc3Cl)cccc21 [Example 41, 5-(2-chlorophenyl)-3-((pyridin-2-ylmethyl)amino)-4H-benzo[e][1,2,4]thiadiazine 1,1-dioxide]
15 | 30.3 nM | COc1cccnc1CNC1=NS(=O)(=O)c2cccc(-c3cccc(F)c3Cl)c2N1 [Example 122, 5-(2-chloro-3-fluorophenyl)-3-(((3-methoxypyridin-2-yl)methyl)amino)-4H-benzo[e][1,2,4]thiadiazine 1,1-dioxide]
16 | 841 nM | COCCNC1=NS(=O)(=O)c2cccc(-c3cccc(Cl)c3F)c2N1 [Example 135, 5-(3-chloro-2-fluorophenyl)-3-((2-methoxyethyl)amino)-4H-benzo[e][1,2,4]thiadiazine 1,1-dioxide]
17 | 180 nM | CCc1ccccc1-c1cccc2c1NC(NCCOC)=NS2(=O)=O [Example 163, 5-(2-ethylphenyl)-3-((2-methoxyethyl)amino)-4H-benzo[e][1,2,4]thiadiazine 1,1-dioxide]
18 | 64.1 nM | CO[C@H](C)CNC1=NS(=O)(=O)c2cccc(-c3cccc(F)c3F)c2N1 (single isomer, unassigned) [Example 24]

Row | EC50 | SMILES
19 | 575 nM | O=S1(=O)N=C(NCC(F)F)Nc2c(-c3ccnc(F)c3Cl)cccc21 [Example 53, 5-(3-chloro-2-fluoropyridin-4-yl)-3-((2,2-difluoroethyl)amino)-4H-benzo[e][1,2,4]thiadiazine 1,1-dioxide]
20 | 562 nM | COCCCNC1=NS(=O)(=O)c2cccc(-c3cccc(F)c3Cl)c2N1 [Example 151, 5-(2-chloro-3-fluorophenyl)-3-((3-methoxypropyl)amino)-4H-benzo[e][1,2,4]thiadiazine 1,1-dioxide]
21 | 1010 nM | O=S1(=O)N=C(NCc2ccncc2)Nc2c(-c3cc(F)cc(F)c3)cccc21 [Example 82, 5-(3,5-difluorophenyl)-3-((pyridin-4-ylmethyl)amino)-4H-benzo[e][1,2,4]thiadiazine 1,1-dioxide]
22 | 56.2 nM | CNC1=NS(=O)(=O)c2cccc(-c3cccc(F)c3C3CC3)c2N1 [Example 157, 5-(2-cyclopropyl-3-fluorophenyl)-3-(methylamino)-4H-benzo[e][1,2,4]thiadiazine 1,1-dioxide]
23 | 82.8 nM | COc1ccccc1CCNC1=NS(=O)(=O)c2cccc(-c3cccc(F)c3Cl)c2N1 [Example 71, 5-(2-chloro-3-fluorophenyl)-3-((2-methoxyphenethyl)amino)-4H-benzo[e][1,2,4]thiadiazine 1,1-dioxide]
24 | 17 nM | O=S1(=O)N=C(NCc2cccc(F)n2)Nc2c(-c3cccc(F)c3Cl)cccc21 [Example 148, 5-(2-chloro-3-fluorophenyl)-3-(((6-fluoropyridin-2-yl)methyl)amino)-4H-benzo[e][1,2,4]thiadiazine 1,1-dioxide]
25 | 64.4 nM | COCCNC1=NS(=O)(=O)c2cccc(-c3ccccc3C(F)(F)F)c2N1 [Example 124, 3-((2-methoxyethyl)amino)-5-(2-(trifluoromethyl)phenyl)-4H-benzo[e][1,2,4]thiadiazine 1,1-dioxide]
26 | 165 nM | CC(C)c1ccc(NC2=NS(=O)(=O)c3cccc(-c4ccccc4Cl)c3N2)cc1 [Example 112, 5-(2-chlorophenyl)-3-((4-isopropylphenyl)amino)-4H-benzo[e][1,2,4]thiadiazine 1,1-dioxide]
27 | 28.6 nM | Cc1coc(CNC2=NS(=O)(=O)c3cccc(-c4cccc(F)c4Cl)c3N2)n1 [Example 30, 5-(2-chloro-3-fluorophenyl)-3-(((4-methyloxazol-2-yl)methyl)amino)-4H-benzo[e][1,2,4]thiadiazine 1,1-dioxide]
28 | 38.2 nM | COC(C)CNC1=NS(=O)(=O)c2cccc(-c3cccc(F)c3Cl)c2N1 (stereo not drawn) [Example 33, 5-(2-chloro-3-fluorophenyl)-3-((2-methoxypropyl)amino)-4H-benzo[e][1,2,4]thiadiazine 1,1-dioxide]
29 | 53.6 nM | O=S1(=O)N=C(NC2CC2)Nc2c(-c3cccc(F)c3Cl)cccc21 [Example 159, 5-(2-chloro-3-fluorophenyl)-3-(cyclopropylamino)-4H-benzo[e][1,2,4]thiadiazine 1,1-dioxide]
30 | 394 nM | COC1CC(NC2=NS(=O)(=O)c3cccc(-c4cccc(F)c4Cl)c3N2)C1 (stereo not drawn) [Example 167, 5-(2-chloro-3-fluorophenyl)-3-((3-methoxycyclobutyl)amino)-4H-benzo[e][1,2,4]thiadiazine 1,1-dioxide]
31 | 282 nM | CNC1=NS(=O)(=O)c2cccc(-c3ccnc(F)c3Cl)c2N1 [Example 56, 5-(3-chloro-2-fluoropyridin-4-yl)-3-(methylamino)-4H-benzo[e][1,2,4]thiadiazine 1,1-dioxide]
32 | 723 nM | COCCNC1=NS(=O)(=O)c2cccc(-c3cc(C(F)(F)F)ccc3Cl)c2N1 [Example 134, 5-(2-chloro-5-(trifluoromethyl)phenyl)-3-((2-methoxyethyl)amino)-4H-benzo[e][1,2,4]thiadiazine 1,1-dioxide]
33 | 578 nM | COc1cccc(CNC2=NS(=O)(=O)c3cccc(C4CC4)c3N2)n1 [Example 120, 5-cyclopropyl-3-(((6-methoxypyridin-2-yl)methyl)amino)-4H-benzo[e][1,2,4]thiadiazine 1,1-dioxide]
34 | 766 nM | CC(C)c1ccc(NC2=NS(=O)(=O)c3cccc(-n4cccn4)c3N2)cc1 [Example 100, 3-((4-isopropylphenyl)amino)-5-(1H-pyrazol-1-yl)-4H-benzo[e][1,2,4]thiadiazine 1,1-dioxide]
35 | 216 nM | COCCNC1=NS(=O)(=O)c2cccc(-c3cc(F)ccc3Cl)c2N1 [Example 144, 5-(2-chloro-5-fluorophenyl)-3-((2-methoxyethyl)amino)-4H-benzo[e][1,2,4]thiadiazine 1,1-dioxide]
36 | 973 nM | CNC1=NS(=O)(=O)c2cccc(-c3cc(Cl)ccc3C#N)c2N1 [Example 90, 4-chloro-2-(3-(methylamino)-1,1-dioxido-4H-benzo[e][1,2,4]thiadiazin-5-yl)benzonitrile]
